The text below walks through data of patent publication US12558334B2, “Controlled nutrient delivery to pancreatic islets using a novel mesoporous silica-based nanoparticle platform” (The Board of Trustees of the Leland Stanford Junior …, priority 2019, dated 2026).

One assay concerns islets. As to conditions: reported in the literature; cited from earlier work.
The conditions of assay [1]: reported in the literature; cited from earlier work.
Assay [2] deals with pancreatic islets. The assay can be described thus: Islet viability, Live/Dead assay. As to conditions: day 7; glutamine 10 mM. It counts as cell-based, C57BL/6 mice. Here is the method:
(§1) All mice within this study were treated in accordance with the guidelines approved by the Institutional Animal Care and Use Committee (IACUC) at Stanford University. Animals were housed under conventional conditions having access to food and water ad libitum. Pancreatic islets were isolated from C57BL/6 mice (male, 6-8-week-old, Charles River Laboratories, USA), as previously described.^9 In brief, the common bile duct was cannulated with a 30G needle and the pancreas distended with 3 mL of cold collagenase solution (Fischer Scientific, USA). The pancreas was removed and islets isolated by digesting the pancreas at 37° C. for 10 min. The islets were purified using histopaque-density gradients. […]
After 7 days of incubation with PDG-MSNPs, the viability of islets was assessed using Live/Dead and 3-(4,5-Dimethylthiazol-2-yl)-2,5-diphenyltetrazolium bromide (MTT) assays. Islets were labeled using fluorescein diacetate (FDA; for live cells (green fluorescence), Thermo Fisher Scientific, USA) and propidium iodide (PI; for dead cells (red fluorescence), Thermo Fisher Scientific, USA) as the Live/Dead staining solution. […] A minimum of 8 islets per experimental group were analyzed using Image-J/FIJI to quantify live and dead fluorescence within islets and the percentage of live islet were presented.

Assay [3] deals with pancreatic islets. Put plainly: Islet function, GSIS assay (insulin secretion). To be noted: 7 days; glutamine 10 mM; 16.7 mM glucose. It counts as cell-based, C57BL/6 mice. Here is the method:
as §1
Islets supplemented with PDG-MSNPs were cultured in a humidified incubator under normal conditions (37° C./5% CO2/20% O2). After 7 days of incubation with PDG-MSNPs, the ability of islets to secrete insulin was assessed by exposing them to low glucose (i.e. basal conditions) and high glucose (i.e. stimulated conditions) media (200 μL/well). […] The supernatants were collected at the end of incubation for both basal and stimulated condition and insulin levels were quantified using a mouse insulin ELISA kit (Mercodia Developing Diagnostics, USA). […]

For assay [4], the system named is diabetic mice transplanted with islets. Put plainly: Islet transplantation under kidney capsule of STZ diabetic mice, metabolic analysis. It counts as in vivo, C57BL/6 mice.

Take `N[C@@H](CS)C(=O)O` [Cysteine]: in the assay with islets, the “Cyto-protective effects on islets” value is given as “Yes”, the Decreased inflammation result is “No”, the Enhanced islet function entry is reported as “No” and the Enhanced islet survival entry is reported as “No”. Also, the “Maintained function of various organs” value in assay [1] is reported as “No”.

Turning to `CC[C@H](C)[C@H](N)C(=O)O` [Isoleucine], in the assay with islets, the “Cyto-protective effects on islets” value was “No”, the Decreased inflammation entry is given as “No”, the Enhanced islet function result is “Yes” and the Enhanced islet survival result is on record as “No”. Moreover, in assay [1], the “Maintained function of various organs” value is reported as “No”.

Consider `NCCCC[C@H](N)C(=O)O` [Lysine], for which, in the assay on islets, the “Cyto-protective effects on islets” value is listed as “No”, the Decreased inflammation result is recorded as “No”, the Enhanced islet function result is “Yes” and the Enhanced islet survival entry is “No”. Moreover, the “Maintained function of various organs” value in assay [1] is “No”.

With `CC(C)C[C@H](N)C(=O)O` [Leucine], in the assay on islets, the “Cyto-protective effects on islets” value is recorded as “Yes”, the Decreased inflammation entry is reported as “No”, the Enhanced islet function result is “Yes” and the Enhanced islet survival entry was “No”.

On to `N[C@@H](Cc1c[nH]c2ccccc12)C(=O)O` [Tryptophan], for which, in the assay on islets, the “Cyto-protective effects on islets” value is listed as “No”, the Decreased inflammation result is recorded as “No”, the Enhanced islet function entry is “Yes” and the Enhanced islet survival result is “Yes”. For the same molecule, the “Maintained function of various organs” value in assay [1] was “No”.

Turning to `N[C@@H](CCS)C(=O)O` [Homocysteine], in the assay on islets, the “Cyto-protective effects on islets” value was “No”, the Decreased inflammation result is on record as “No”, the Enhanced islet function result is reported as “No” and the Enhanced islet survival entry was “No”. Further, the “Maintained function of various organs” value in assay [1] is given as “No”.

Regarding `C[C@H](N)C(=O)O` [Alanine], in the assay on islets, the “Cyto-protective effects on islets” value was “No”, the Decreased inflammation result is “No”, the Enhanced islet function entry was “Yes” and the Enhanced islet survival result was “Yes”. Besides, the “Maintained function of various organs” value in assay [1] is reported as “No”.

As to `CSCC[C@H](N)C(=O)O` [Methionine], in the assay on islets, the “Cyto-protective effects on islets” value is “No”, the Decreased inflammation result is “No”, the Enhanced islet function entry is reported as “No” and the Enhanced islet survival result was “No”. In addition, in assay [1], the “Maintained function of various organs” value is recorded as “No”.

With `NC(=O)CC[C@H](N)C(=O)O` [Glutamine, glutamine], the “islet viability (Live/Dead)” value with pancreatic islets [2] stood at 77.1±2.6%. Besides, in the assay on pancreatic islets [3], the “insulin secretion following stimulation with high glucose medium” value turned out to be 8.1 ± 0.3 ng/mL. In assay [4] (day 30 post-transplantation), the “non-fasting blood glucose level (BGL)” value turned out to be 337 ± 84 mg/dL. Moreover, the “AUC0-20 min of IPGTT” value in assay [4] (fasting IPGTT) turned out to be 26935 ± 1347 mg·min/dL. For the same molecule, the “IPGTT peak incremental value following glucose injection” value in assay [4] (fasting IPGTT, glucose 2 g/kg i.p., peak at 30 min) was determined as 238 ± 12 mg/dL. In assay [4] (week 4), the body weight was 20.7 ± 0.9 g. Besides, in the assay with islets, the “Cyto-protective effects on islets” value is “Yes”, the Decreased inflammation entry is listed as “Yes”, the Enhanced islet function result is reported as “Yes” and the Enhanced islet survival entry is reported as “Yes”.

For the molecule `N=C(N)NCCC[C@H](N)C(=O)O` [Arginine], in the assay on islets, the “Cyto-protective effects on islets” value was “No”, the Decreased inflammation result is listed as “No”, the Enhanced islet function result is recorded as “Yes” and the Enhanced islet survival entry is “No”. In addition, the “Maintained function of various organs” value in assay [1] was “No”.

For `O=C(O)[C@@H]1CCCN1` [Proline], in the assay on islets, the “Cyto-protective effects on islets” value was “No”, the Decreased inflammation result is recorded as “No”, the Enhanced islet function result is on record as “Yes” and the Enhanced islet survival result was “No”. The “Maintained function of various organs” value in assay [1] was “No”.
